For the test, the target named is T1, ZAP-70 (Homo sapiens, UniProt P43403).
T1 sequence (P43403 1-619): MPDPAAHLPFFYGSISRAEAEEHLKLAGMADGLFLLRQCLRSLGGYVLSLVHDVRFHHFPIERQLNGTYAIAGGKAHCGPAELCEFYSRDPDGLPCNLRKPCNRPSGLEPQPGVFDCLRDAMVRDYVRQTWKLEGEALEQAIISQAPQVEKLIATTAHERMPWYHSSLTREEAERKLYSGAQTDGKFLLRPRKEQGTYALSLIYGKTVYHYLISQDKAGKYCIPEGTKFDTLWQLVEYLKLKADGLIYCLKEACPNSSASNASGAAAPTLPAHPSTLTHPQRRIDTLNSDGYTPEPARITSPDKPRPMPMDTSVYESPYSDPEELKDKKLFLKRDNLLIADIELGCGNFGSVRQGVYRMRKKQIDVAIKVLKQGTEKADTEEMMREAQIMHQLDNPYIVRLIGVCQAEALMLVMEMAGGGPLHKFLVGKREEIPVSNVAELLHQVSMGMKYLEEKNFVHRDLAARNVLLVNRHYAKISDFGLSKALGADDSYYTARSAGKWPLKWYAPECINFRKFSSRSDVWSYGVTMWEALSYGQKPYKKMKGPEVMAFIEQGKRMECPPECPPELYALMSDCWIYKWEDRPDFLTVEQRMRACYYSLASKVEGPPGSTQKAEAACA
The experiment in a line: DELFIA assay (ZAP-70 kinase, phosphorylation of biotinylated poly(glu,tyr)). Type of test: biochemical. To be noted: ZAP-70 DELFIA, class symbols; read-out: Activity (IC50 in vitro). The protocol: Before initiation of kinase reactions, compounds were pre-incubated with ZAP-70. Pre-incubation reactions contained 62.5 mM Mops pH 7.0, 12.5 mM MgCl2, 12.5% glycerol, 3.1 nM ZAP-70, 62.5 nM biotinylated poly(glu,Tyr), 0.1 mg/ml BSA, 6.25% DMSO and […] compound in a total volume of […]. After a 10 minute room temperature incubation, 10 ml of 5 mM ATP was added to start the reaction. Reactions were incubated at room temperature for 30 minutes then terminated by addition of 5 ml 500 mM EDTA. The amount of phosphate transferred to biotinylated poly(glu,tyr) was measured using the Dissociation Enhanced Lanthanide Fluorescence Immuno-assay (DELFIA) from Perkin Elmer according to manufacturers protocol. Briefly, biotinylated […] was captured on streptavidin coated plates, washed twice, then incubated with Europium labeled-anti-phosphotyrosine antibody. Free antibody was removed with six washes, Europium was dissociated from the antibody, and Europium fluorescence was measured at using an excitation wavelength of 340 nm and an emission wavelength of 615 nm.

A word on the IC50: it is the concentration that inhibits the measured activity by half.

For `O=C(c1cc(Cl)nc2ccc(-c3ccc4c(c3)OCO4)cc12)N1CCC[C@H]1CN1CCCC1` [Compound 1], the IC50 lay within 1000 to 10000 nM.
Then `O=C(c1cc(NC2CC2)nc2ccc(-c3ccc4c(c3)OCO4)cc12)N1CCC[C@H]1CN1CCCC1` [Compound 2], with 1000 to 10000 nM.
In the case of `O=C(c1cc(Cl)nc2ccccc12)N1CCC[C@H]1CN1CCCC1` [Compound 3] it was greater than 10000 nM.
In the case of `O=C(c1cc(NCc2ccccc2)nc2ccc(-c3ccc4c(c3)OCO4)cc12)N1CCC[C@H]1CN1CCCC1` [Compound 4] it was less than 1000 nM.
Regarding `O=C(c1cc(N2CCOCC2)nc2ccc(-c3ccc4c(c3)OCO4)cc12)N1CCC[C@H]1CN1CCOCC1` [Compound 5], the 50% inhibitory concentration (IC50) lay in the range of 1000 to 10000 nM.
Then `COc1cc(C(=O)N2CCC[C@H]2CN2CCCC2)cc(-c2ccc3c(c2)OCO3)n1` [Compound 6], with greater than 10000 nM.
Then `COc1cc(C(=O)N2CCC[C@H]2CN2CCCC2)cc(NCc2ccccc2)n1` [Compound 7], with greater than 10000 nM; and `O=C(c1cc(Nc2ccc3c(c2)OCO3)nc2ccccc12)N1CCC[C@H]1CN1CCCC1` [Compound 8], with greater than 10000 nM.
Then `O=C(c1cc(NC2CC2)nc2ccccc12)N1CCC[C@H]1CN1CCCC1` [Compound 9], with greater than 10000 nM.
On to `O=C(c1cc(Nc2ccc3cn[nH]c3c2)nc2ccccc12)N1CCC[C@H]1CN1CCCC1` [Compound 10], for which the IC50 is greater than 10000 nM.
Take `Nc1cc(C(=O)N2CCC[C@H]2CN2CCCC2)c2cc(-c3ccc4c(c3)OCO4)ccc2n1` [Compound 11]: the half-maximal inhibitory concentration (IC50) lay within 1000 to 10000 nM.
In the case of `CN(Cc1ccccc1)c1cc(C(=O)N2CCC[C@H]2CN2CCCC2)c2cc(-c3ccc4c(c3)OCO4)ccc2n1` [Compound 12] it was less than 1000 nM; in that of `O=C(c1cc(Nc2ccccc2)nc2ccc(-c3ccc4c(c3)OCO4)cc12)N1CCC[C@H]1CN1CCCC1` [Compound 13], less than 1000 nM.
Then `O=C(c1cc(NCc2ccccc2)nc2ccccc12)N1CCC[C@H]1CN1CCCC1` [Compound 14], with greater than 10000 nM; and `COc1ccc(Nc2cc(C(=O)N3CCC[C@H]3CN3CCCC3)c3cc(-c4ccc5c(c4)OCO5)ccc3n2)cc1` [Compound 15], with less than 1000 nM.
`O=C(c1cc(Nc2ccc(F)cc2)nc2ccc(-c3ccc4c(c3)OCO4)cc12)N1CCC[C@H]1CN1CCCC1` [Compound 16]: the 50% inhibitory concentration (IC50) is less than 1000 nM.
Regarding `COc1cccc(Nc2cc(C(=O)N3CCC[C@H]3CN3CCCC3)c3cc(-c4ccc5c(c4)OCO5)ccc3n2)c1` [Compound 17], the IC50 was less than 1000 nM.
Then `O=C(c1cc(Nc2cccc(Br)c2)nc2ccc(-c3ccc4c(c3)OCO4)cc12)N1CCC[C@H]1CN1CCCC1` [Compound 18], with less than 1000 nM; and `O=C(c1cc(Nc2ccccn2)nc2ccc(-c3ccc4c(c3)OCO4)cc12)N1CCC[C@H]1CN1CCCC1` [Compound 19], with less than 1000 nM.
Then `CN(C)C[C@@H]1CCCN1C(=O)c1cc(N(C)C)nc2ccc(-c3ccc4c(c3)OCO4)cc12` [Compound 20], with greater than 10000 nM; and `O=C(c1cc(NCc2ccccc2)nc2ccc(-c3ccc4c(c3)OCO4)cc12)N1CCC[C@H]1CNCc1ccccc1` [Compound 21], with greater than 10000 nM.
For `O=C(c1cc(Oc2ccccc2)nc2ccc(-c3ccc4c(c3)OCO4)cc12)N1CCC[C@H]1CN1CCCC1` [Compound 22], the IC50 was less than 1000 nM.
Turning to `O=C(c1cc(OCc2ccccc2)nc2ccc(-c3ccc4c(c3)OCO4)cc12)N1CCC[C@H]1CN1CCCC1` [Compound 23], the IC50 is less than 1000 nM.
Then `O=C(c1cc(NC2CCCCC2)nc2ccc(-c3ccc4c(c3)OCO4)cc12)N1CCC[C@H]1CN1CCCC1` [Compound 24], with less than 1000 nM.
In the case of `O=C(c1cc(Cc2ccccc2)nc2ccc(-c3ccc4c(c3)OCO4)cc12)N1CCC[C@H]1CN1CCCC1` [Compound 25] it was less than 1000 nM; in that of `O=C(c1cc(NCCN2CCOCC2)nc2ccc(-c3ccc4c(c3)OCO4)cc12)N1CCC[C@H]1CN1CCCC1` [Compound 26], greater than 10000 nM.
For `O=C(c1cc(NCC2CCCCC2)nc2ccc(-c3ccc4c(c3)OCO4)cc12)N1CCC[C@H]1CN1CCCC1` [Compound 27], the half-inhibitory concentration (IC50) is less than 1000 nM.
In the case of `O=C(c1cc(NC2CCCC2)nc2ccc(-c3ccc4c(c3)OCO4)cc12)N1CCC[C@H]1CN1CCCC1` [Compound 28] it was greater than 10000 nM; in that of `O=C(c1cc(NC2Cc3ccccc3C2)nc2ccc(-c3ccc4c(c3)OCO4)cc12)N1CCC[C@H]1CN1CCCC1` [Compound 29], 1000 to 10000 nM.
Then `O=C(c1cc(NCc2ccc(F)cc2)nc2ccc(-c3ccc4c(c3)OCO4)cc12)N1CCC[C@H]1CN1CCCC1` [Compound 30], with less than 1000 nM; and `O=C(c1cc(NCc2cccc(F)c2)nc2ccc(-c3ccc4c(c3)OCO4)cc12)N1CCC[C@H]1CN1CCCC1` [Compound 31], with less than 1000 nM.
In the case of `O=C(c1cc(NCCN2CCCCC2)nc2ccc(-c3ccc4c(c3)OCO4)cc12)N1CCC[C@H]1CN1CCCC1` [Compound 32] it was greater than 10000 nM; in that of `O=C(c1cc(NCc2ccccn2)nc2ccc(-c3ccc4c(c3)OCO4)cc12)N1CCC[C@H]1CN1CCCC1` [Compound 33], 1000 to 10000 nM.
`O=C(c1cc(NCc2cccnc2)nc2ccc(-c3ccc4c(c3)OCO4)cc12)N1CCC[C@H]1CN1CCCC1` [Compound 34]: the concentration for half-maximal inhibition (IC50) was 1000 to 10000 nM.
In the case of `O=C(c1cc(NCc2ccc(Cl)cc2)nc2ccc(-c3ccc4c(c3)OCO4)cc12)N1CCC[C@H]1CN1CCCC1` [Compound 35], the 50% inhibitory concentration (IC50) is less than 1000 nM.
In the case of `O=C(c1cc(NCc2ccccc2Cl)nc2ccc(-c3ccc4c(c3)OCO4)cc12)N1CCC[C@H]1CN1CCCC1` [Compound 36] it was less than 1000 nM; in that of `O=C(c1cc(NCCc2ccccc2)nc2ccc(-c3ccc4c(c3)OCO4)cc12)N1CCC[C@H]1CN1CCCC1` [Compound 37], less than 1000 nM; in that of `O=C(c1cc(NCc2ccncc2)nc2ccc(-c3ccc4c(c3)OCO4)cc12)N1CCC[C@H]1CN1CCCC1` [Compound 38], 1000 to 10000 nM.
Then `O=C(c1cc(NC2CCC2)nc2ccc(-c3ccc4c(c3)OCO4)cc12)N1CCC[C@H]1CN1CCCC1` [Compound 39], with 1000 to 10000 nM.
Then `O=C(c1cc(NCc2ccc(F)c(Cl)c2)nc2ccc(-c3ccc4c(c3)OCO4)cc12)N1CCC[C@H]1CN1CCCC1` [Compound 40], with less than 1000 nM; and `O=C(c1cc(N[C@H]2CCc3ccccc32)nc2ccc(-c3ccc4c(c3)OCO4)cc12)N1CCC[C@H]1CN1CCCC1` [Compound 41], with less than 1000 nM; and `O=C(c1cc(N[C@@H]2CCc3ccccc32)nc2ccc(-c3ccc4c(c3)OCO4)cc12)N1CCC[C@H]1CN1CCCC1` [Compound 42], with 1000 to 10000 nM.
As for `CCC(Nc1cc(C(=O)N2CCC[C@H]2CN2CCCC2)c2cc(-c3ccc4c(c3)OCO4)ccc2n1)c1ccccc1` (some centres unmarked) [Compound 43], the IC50 is less than 1000 nM.
Then `O=C(c1cc(NCc2ccc(C(F)(F)F)cc2)nc2ccc(-c3ccc4c(c3)OCO4)cc12)N1CCC[C@H]1CN1CCCC1` [Compound 44], with less than 1000 nM.
In the case of `O=C(c1cc(NCCc2ccc(Cl)cc2Cl)nc2ccc(-c3ccc4c(c3)OCO4)cc12)N1CCC[C@H]1CN1CCCC1` [Compound 45] it was less than 1000 nM; in that of `O=C(c1cc(NCc2ccc(F)cc2F)nc2ccc(-c3ccc4c(c3)OCO4)cc12)N1CCC[C@H]1CN1CCCC1` [Compound 46], less than 1000 nM.
For `C[C@@H](O)CNc1cc(C(=O)N2CCC[C@H]2CN2CCCC2)c2cc(-c3ccc4c(c3)OCO4)ccc2n1` [Compound 47], the IC50 fell in the range of 1000 to 10000 nM.
In the case of `O=C(c1cc(N[C@@H]2c3ccccc3C[C@@H]2O)nc2ccc(-c3ccc4c(c3)OCO4)cc12)N1CCC[C@H]1CN1CCCC1` [Compound 48] it was 1000 to 10000 nM.
In the case of `O=C(c1cc(NCCc2c[nH]cn2)nc2ccc(-c3ccc4c(c3)OCO4)cc12)N1CCC[C@H]1CN1CCCC1` [Compound 49] it was 1000 to 10000 nM; in that of `O=C(c1cc(NCc2cccs2)nc2ccc(-c3ccc4c(c3)OCO4)cc12)N1CCC[C@H]1CN1CCCC1` [Compound 50], less than 1000 nM; in that of `O=C(c1cc(Nc2ccc(Oc3ccccc3)cc2)nc2ccc(-c3ccc4c(c3)OCO4)cc12)N1CCC[C@H]1CN1CCCC1` [Compound 51], less than 1000 nM.
`O=C(c1cc(Nc2ccc(Cl)cc2)nc2ccc(-c3ccc4c(c3)OCO4)cc12)N1CCC[C@H]1CN1CCCC1` [Compound 52]: the half-maximal inhibitory concentration (IC50) was less than 1000 nM.
Take `O=C(c1cc(Nc2ccc3c(c2)OCO3)nc2ccc(-c3ccc4c(c3)OCO4)cc12)N1CCC[C@H]1CN1CCCC1` [Compound 53]: the IC50 is less than 1000 nM.

The record behind these values is patent US20080119515A1, “Heterocyclic Kinase Inhibitors: Methods of Use and Synthesis” (priority 2003, published 2008).
